In brackets after ≈: the same amount, converted by molar mass.
Key:
[1] = tested on: Mycobacterium tuberculosis; assay: Antitubercular activity against marker free autoluminescent Mycobacterium tuberculosis H37Ra assessed as reduction in relative light unit measured once a day for 6 days; type: functional; details: 144 h, time 6 day
[2] = Cytotoxicity against human HepG2 cells assessed as inhibition of cell growth incubated for 48 hrs by MTT assay; type: toxicity, cell-based
[3] = tested on: Mycobacterium tuberculosis; assay: Antibacterial activity against Mycobacterium tuberculosis clinical isolate K12 assessed as inhibition of bacterial growth incubated for 6 days by microplate alamar blue assay; type: functional; details: K12, 144 h, time 6 day
[4] = tested on: Mycobacteroides abscessus; assay: Antibacterial activity against Mycobacterium abscessus assessed as inhibition of bacterial growth; type: functional
[5] = biological target: T1, Dihydrofolate reductase (Mycobacterium tuberculosis) (UniProt P9WNX1); assay: Inhibition of Mycobacterium tuberculosis DHFR at 10 uM relative to control
T1 sequence (whole entry): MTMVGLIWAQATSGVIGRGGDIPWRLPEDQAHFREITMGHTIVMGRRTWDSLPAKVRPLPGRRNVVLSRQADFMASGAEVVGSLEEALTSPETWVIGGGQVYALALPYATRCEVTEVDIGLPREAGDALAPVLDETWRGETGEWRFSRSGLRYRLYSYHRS

[6] = tested on: Mycobacterium tuberculosis; assay: Antibacterial activity against Mycobacterium tuberculosis clinical isolate K16 assessed as inhibition of bacterial growth incubated for 6 days by microplate alamar blue assay; type: functional; details: K16, 144 h, time 6 day
[7] = tested on: Mycolicibacterium smegmatis; assay: Antibacterial activity against Mycobacterium smegmatis assessed as inhibition of bacterial growth; type: functional
[8] = tested on: Mycobacterium tuberculosis; assay: Antibacterial activity against Mycobacterium tuberculosis clinical isolate K5 assessed as inhibition of bacterial growth incubated for 6 days by microplate alamar blue assay; type: functional; details: K5, 144 h, time 6 day
[9] = Toxicity in BALB/c mouse assessed as mouse death at 300 mg/kg, po measured after 6 days; type: organism-based; details: in vivo, 144 h, time 6 day
[10] = biological target: T1, Dihydrofolate reductase (Mycobacterium tuberculosis); assay: Inhibition of Mycobacterium tuberculosis DHFR at 100 uM relative to control
[11] = tested on: Mycobacterium tuberculosis; assay: Antibacterial activity against Mycobacterium tuberculosis clinical isolate K4 assessed as inhibition of bacterial growth incubated for 6 days by microplate alamar blue assay; type: functional; details: K4, 144 h, time 6 day
Escherichia coli = assay: Antibacterial activity against Escherichia coli assessed as inhibition of bacterial growth; type: functional
Staphylococcus aureus = assay: Antibacterial activity against methicillin-resistant Staphylococcus aureus assessed as inhibition of bacterial growth; type: functional
[12] = tested on: Mycobacterium tuberculosis; assay: Antibacterial activity against Mycobacterium tuberculosis H37Rv assessed as inhibition of bacterial growth incubated for 6 days by microplate alamar blue assay; type: functional; details: 144 h, time 6 day
[13] = Oral bioavailability in Sprague-Dawley rat at 15 mg/kg measured for 24 hrs by LC-MS analysis; type: ADME, organism-based; details: in vivo

| SMILES | MIC [1] [µg/mL] | IC50 at 48 h [2] [µM] | also measured |
| --- | --- | --- | --- |
| Cc1cc(Nc2cc(C(F)(F)F)nc(-c3ccccc3)n2)c(OC(C)C)cc1C1CCNCC1 | 2 (≈ 4.25 µM) | 1.3 |  |
| Cc1cc(Nc2nc(Nc3ccc(Cl)cc3Cl)ncc2Cl)c(OC(C)C)cc1C1CCNCC1 | 2 (≈ 3.84 µM) | 2.5 |  |
| CCOc1cc(N2CCNCC2)ccc1Nc1nc(-c2ccccc2)ncc1Cl | 2 (≈ 4.88 µM) | 2.5 |  |
| Cc1cc(Nc2nc(-c3cccc(O)c3)ncc2Cl)c(OC(C)C)cc1C1CCNCC1 | 2 (≈ 4.42 µM) | 1.3 |  |
| Cc1cc(Nc2nc(-c3ccncc3)ncc2Cl)c(OC(C)C)cc1C1CCNCC1 | 2 (≈ 4.57 µM) | 2 |  |
| Cc1cc(Nc2nc(NC3CC3)ncc2Cl)c(OC(C)C)cc1C1CCNCC1 | 4 (≈ 9.62 µM) | 7.6 |  |
| Cc1cc(Nc2nc(-c3cccnc3)ncc2Cl)c(OC(C)C)cc1C1CCNCC1 | 2 (≈ 4.57 µM) | 1.7 |  |
| Cc1cc(Nc2nc(-c3ccc(Cl)cc3)ncc2Cl)c(OC(C)C)cc1C1CCNCC1 | 0.5 (≈ 1.06 µM) | 2.3 |  |
| Cc1cc(Nc2nc(-c3cccc(CO)c3)ncc2Cl)c(OC(C)C)cc1C1CCNCC1 | 4 (≈ 8.57 µM) | 4 |  |
| Clc1cnc(-c2ccccc2)nc1Nc1ccc(N2CCNCC2)cc1OCC1CCCCC1 | 2 (≈ 4.18 µM) | 2.9 |  |
| Cc1cc(Nc2nc(-c3ccc4c(c3)OCCO4)ncc2Cl)c(OC(C)C)cc1C1CCNCC1 | 1 (≈ 2.02 µM) | 1 |  |
| CCc1ncc(Cl)c(Nc2cc(C)c(C3CCNCC3)cc2OC(C)C)n1 | 8 (≈ 20.6 µM) | 8 |  |
| Cc1cc(Nc2nc(-c3ccccc3)ncc2F)c(OC(C)C)cc1C1CCNCC1 | 0.5 (≈ 1.19 µM) | 2.8 |  |
| Cc1cc(Nc2nc(-c3ccc(CO)cc3)ncc2Cl)c(OC(C)C)cc1C1CCNCC1 | 2 (≈ 4.28 µM) | 2 |  |
| COc1cc(N2CCNCC2)ccc1Nc1nc(-c2ccccc2)ncc1Cl | 4 (≈ 10.1 µM) | 2.7 |  |
| COc1ccccc1Nc1ncc(Cl)c(Nc2cc(C)c(C3CCNCC3)cc2OC(C)C)n1 | 2 (≈ 4.15 µM) | 2 |  |
| Cc1cc(NC(=O)Nc2ccc(F)cc2)c(OC(C)C)cc1C1CCNCC1 | > 64 | > 20 |  |
| CCCCOc1cc(N2CCNCC2)ccc1Nc1nc(-c2ccccc2)ncc1Cl | 1 (≈ 2.28 µM) | 2.6 |  |
| Cc1cc2nc(-c3ccccc3)cc(Nc3cc(C)c(C4CCNCC4)cc3OC(C)C)n2n1 | 8 (≈ 17.6 µM) | 4.7 |  |
| COc1cccc(Nc2ncc(Cl)c(Nc3cc(C)c(C4CCNCC4)cc3OC(C)C)n2)c1 | 1 (≈ 2.07 µM) | 1.3 |  |

| SMILES | MIC [1] [µg/mL] | IC50 at 48 h [2] [µM] | also measured |
| --- | --- | --- | --- |
| Cc1cc(Nc2cc(-c3ccccc3)nc3ccnn23)c(OC(C)C)cc1C1CCNCC1 | 4 (≈ 9.06 µM) | 4.1 |  |
| Cc1cc(Nc2nc(N)ncc2Cl)c(OC(C)C)cc1C1CCNCC1 | 32 (≈ 85.1 µM) | > 10 |  |
| CCCc1ccc(-c2ncc(Cl)c(Nc3cc(C)c(C4CCNCC4)cc3OC(C)C)n2)cc1 | 1 (≈ 2.09 µM) | 2.2 |  |
| Cc1cc(Nc2nc(-c3ccc4c(c3)OCO4)ncc2Cl)c(OC(C)C)cc1C1CCNCC1 | 1 (≈ 2.08 µM) | 1 |  |
| Cc1cc(Nc2nc(-c3cccc4ccccc34)ncc2Cl)c(OC(C)C)cc1C1CCNCC1 | 0.5 (≈ 1.03 µM) | 0.5 |  |
| Cc1cc(Nc2nc(Nc3ccc(F)cc3)ncc2Cl)c(OC(C)C)cc1C1CCNCC1 | 0.5 (≈ 1.06 µM) | 2.2 | MIC [3]: 1 µg/mL (≈ 2.13 µM); MIC [4]: 8 µg/mL (≈ 17 µM); inhibition [5]: 2.8%; MIC [6]: 2 µg/mL (≈ 4.26 µM); MIC [7]: 4 µg/mL (≈ 8.51 µM); MIC [8]: 2 µg/mL (≈ 4.26 µM); Activity [9]: Toxic; inhibition [10]: 3.5%; MIC [11]: 1 µg/mL (≈ 2.13 µM); MIC (Escherichia coli): > 16 µg/mL; MIC (Staphylococcus aureus): 4 µg/mL (≈ 8.51 µM); MIC [12]: 1 µg/mL (≈ 2.13 µM) |
| CNC(=O)c1ccc(-c2ncc(Cl)c(Nc3cc(C)c(C4CCNCC4)cc3OC(C)C)n2)cc1 | 2 (≈ 4.05 µM) | 2 |  |
| Cc1ccc(-c2ncc(Cl)c(Nc3cc(C)c(C4CCNCC4)cc3OC(C)C)n2)cc1 | 1 (≈ 2.22 µM) | 2.5 |  |
| Cc1cc(Nc2ccnc(-c3ccccc3)n2)c(OC(C)C)cc1C1CCNCC1 | 4 (≈ 9.94 µM) | 1.9 |  |
| CCC(C)Oc1cc(N2CCNCC2)ccc1Nc1nc(-c2ccccc2)ncc1Cl (stereo unspecified) | 1 (≈ 2.28 µM) | 2.3 |  |
| Clc1cnc(-c2ccccc2)nc1Nc1ccc(N2CCNCC2)cc1 | 8 (≈ 21.9 µM) | 3.3 |  |
| Cc1cc(Nc2nc(-c3ccc4ccccc4c3)ncc2Cl)c(OC(C)C)cc1C1CCNCC1 | 0.5 (≈ 1.03 µM) | 0.5 |  |
| Clc1cnc(-c2ccccc2)nc1Nc1ccc(N2CCNCC2)cc1OC1CCCC1 | 1 (≈ 2.22 µM) | 2.7 |  |
| Cc1cc(Nc2nc(-c3ccc(C(C)C)cc3)ncc2Cl)c(OC(C)C)cc1C1CCNCC1 | 1 (≈ 2.09 µM) | 2.2 |  |
| Cc1cc(Nc2nc(C3CC3)ncc2Cl)c(OC(C)C)cc1C1CCNCC1 | 2 (≈ 4.99 µM) | 2 |  |
| Cc1cc(Nc2nc(Nc3cccc4ccccc34)ncc2Cl)c(OC(C)C)cc1C1CCNCC1 | 2 (≈ 3.98 µM) | 2.2 |  |
| Cc1cc(Nc2nc(Nc3cccc(F)c3)ncc2Cl)c(OC(C)C)cc1C1CCNCC1 | 0.5 (≈ 1.06 µM) | 1.9 |  |
| Cc1cc(Nc2nc(-c3cnc4ccccc4c3)ncc2Cl)c(OC(C)C)cc1C1CCNCC1 | 1 (≈ 2.05 µM) | 1 |  |
| CC(C)CCOc1cc(N2CCNCC2)ccc1Nc1nc(-c2ccccc2)ncc1Cl | 1 (≈ 2.21 µM) | 2.1 |  |
| CC(C)COc1cc(N2CCNCC2)ccc1Nc1nc(-c2ccccc2)ncc1Cl | 1 (≈ 2.28 µM) | 2.6 |  |

| SMILES | MIC [1] [µg/mL] | IC50 at 48 h [2] [µM] | also measured |
| --- | --- | --- | --- |
| Clc1cnc(-c2ccccc2)nc1Nc1ccc(N2CCNCC2)cc1OC1CCCCC1 | 2 (≈ 4.31 µM) | 3.1 |  |
| Cc1cc(Nc2nc(-c3ccccc3CO)ncc2Cl)c(OC(C)C)cc1C1CCNCC1 | 4 (≈ 8.57 µM) | 2 |  |
| Cc1cc(Nc2nc(Cl)ncc2Cl)c(OC(C)C)cc1C1CCNCC1 | 16 (≈ 40.5 µM) | 16 |  |
| Cc1cc(Nc2cc(-c3ccccc3)nc3ncnn23)c(OC(C)C)cc1C1CCNCC1 | 4 (≈ 9.04 µM) | 4.4 |  |
| Cc1cc(Nc2nc(Nc3ccccc3F)ncc2Cl)c(OC(C)C)cc1C1CCNCC1 | 1 (≈ 2.13 µM) | 1.9 |  |
| CO[C@H]1/C=C/O[C@@]2(C)Oc3c(C)c(O)c4c(O)c(c(/C=N/N5CCN(C)CC5)c(O)c4c3C2=O)NC(=O)/C(C)=C\C=C\[C@H](C)[C@H](O)[C@@H](C)[C@@H](O)[C@@H](C)[C@H](OC(C)=O)[C@@H]1C [RIFAMPIN] |  |  | MIC [3]: > 10 µg/mL; MIC [6]: > 10 µg/mL; MIC [8]: > 50 µg/mL; MIC [11]: > 50 µg/mL; MIC [12]: < 1 µg/mL |
| CCCOc1cc(N2CCNCC2)ccc1Nc1nc(-c2ccccc2)ncc1Cl | 1 (≈ 2.36 µM) | 2.1 |  |
| Cc1cc(Nc2nc(Nc3cccc(C(F)(F)F)c3)ncc2Cl)c(OC(C)C)cc1C1CCNCC1 | 1 (≈ 1.92 µM) | 1.1 |  |
| Cc1cc(C)cc(-c2ncc(Cl)c(Nc3cc(C)c(C4CCNCC4)cc3OC(C)C)n2)c1 | 1 (≈ 2.15 µM) | 2.9 |  |
| Cc1cc(Nc2nc(Nc3cccc(Cl)c3)ncc2Cl)c(OC(C)C)cc1C1CCNCC1 | 1 (≈ 2.06 µM) | 2 |  |
| NNC(=O)c1ccncc1 [ISONIAZID] |  |  | MIC [3]: > 10 µg/mL; MIC [6]: > 10 µg/mL; MIC [8]: > 50 µg/mL; MIC [11]: > 50 µg/mL; MIC [12]: < 1 µg/mL |
| CC(C)Oc1cc(N2CCNCC2)ccc1Nc1nc(-c2ccccc2)ncc1Cl | 1 (≈ 2.36 µM) | 2.9 |  |
| Cc1cc(Nc2ncc(Cl)c(Nc3cccc4ccccc34)n2)c(OC(C)C)cc1C1CCNCC1 |  |  | MIC [4]: 16 µg/mL (≈ 31.9 µM); inhibition [5]: 3.1%; MIC [7]: 16 µg/mL (≈ 31.9 µM); bioavailability [13]: 17.5%; inhibition [10]: 4.4%; MIC (Escherichia coli): > 16 µg/mL; MIC (Staphylococcus aureus): 8 µg/mL (≈ 15.9 µM) |
| Cc1cc(Nc2cc(C)c(C3CCNCC3)cc2OC(C)C)nc(-c2ccccc2)n1 | 4 (≈ 9.6 µM) | 1.9 |  |
| Cc1cc(Nc2nc(-c3ccc(C(C)(C)C)cc3)ncc2Cl)c(OC(C)C)cc1C1CCNCC1 | 1 (≈ 2.03 µM) | 2.3 |  |
| Cc1cc(Nc2nc(NC3CCCC3)ncc2Cl)c(OC(C)C)cc1C1CCNCC1 | 1 (≈ 2.25 µM) | 3.8 |  |
| Cc1cc(Nc2nc(-c3ccccc3)nc3ccsc23)c(OC(C)C)cc1C1CCNCC1 | 2 (≈ 4.36 µM) | 1.7 |  |
| Cc1cc(Nc2nc(-c3ccccc3)nc3ccccc23)c(OC(C)C)cc1C1CCNCC1 | 2 (≈ 4.42 µM) | 2.8 |  |
| Cc1cc(NC(=S)Nc2ccc(F)cc2)c(OC(C)C)cc1C1CCNCC1 | > 64 | > 20 |  |
